{"source": "paper PMC4107924", "about": "“Structure and function study of the complex that synthesizes S-adenosylmethionine” (IUCrJ, 2014)", "type_in_all_cases": "binding", "key": {"MATβV2": {"target": "T1, MATβV2 (Homo sapiens, UniProt Q9NZL9)", "T1 construct": "gene MAT2B; recombinant in E. coli BL21(DE3), pET-28a(+); His tag cut with thrombin; free subunit", "T1 sequence (Q9NZL9 1-323 isoform Q9NZL9-2)": "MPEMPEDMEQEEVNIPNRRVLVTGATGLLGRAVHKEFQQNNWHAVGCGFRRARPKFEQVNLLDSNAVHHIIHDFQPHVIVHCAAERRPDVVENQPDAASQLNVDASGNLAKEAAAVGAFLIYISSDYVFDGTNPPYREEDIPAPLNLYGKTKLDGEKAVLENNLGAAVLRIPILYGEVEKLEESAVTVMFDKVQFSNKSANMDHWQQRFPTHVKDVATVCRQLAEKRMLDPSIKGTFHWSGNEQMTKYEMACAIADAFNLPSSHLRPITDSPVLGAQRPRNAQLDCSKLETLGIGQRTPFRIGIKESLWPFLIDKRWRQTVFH", "assay": "ITC", "settings": "read-out: NADP → MATβV2"}, "MATβV1": {"target": "T2, MATβV1 (Homo sapiens, UniProt Q9NZL9)", "T2 construct": "gene MAT2B; recombinant in E. coli BL21(HC41), HIS-parallel vector; His tag cut with TEV protease; free subunit", "T2 sequence (Q9NZL9 whole entry)": "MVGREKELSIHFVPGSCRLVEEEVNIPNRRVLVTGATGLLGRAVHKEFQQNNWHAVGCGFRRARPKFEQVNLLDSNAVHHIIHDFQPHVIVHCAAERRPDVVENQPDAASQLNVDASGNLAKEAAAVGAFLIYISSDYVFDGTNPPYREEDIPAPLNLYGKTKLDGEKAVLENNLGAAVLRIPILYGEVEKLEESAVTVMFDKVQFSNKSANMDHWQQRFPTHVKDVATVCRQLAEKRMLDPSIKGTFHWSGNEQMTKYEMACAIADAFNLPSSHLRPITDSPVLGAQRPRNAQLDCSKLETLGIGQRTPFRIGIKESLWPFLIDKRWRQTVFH", "assay": "ITC", "settings": "read-out: NADP → MATβV1"}, "MAT(α2)4(βV2)2 [1]": {"target": "T3, MAT(α2)4(βV2)2 (Homo sapiens, UniProt P31153)", "T3 construct": "gene MAT2A; recombinant in E. coli BL21(DE3), assembled in vitro; His tags cut (TEV for MATα2, thrombin for MATβV2); 258 kDa, 4:2 complex; with Methionine adenosyltransferase 2 subunit beta", "T3 sequence (P31153 whole entry)": "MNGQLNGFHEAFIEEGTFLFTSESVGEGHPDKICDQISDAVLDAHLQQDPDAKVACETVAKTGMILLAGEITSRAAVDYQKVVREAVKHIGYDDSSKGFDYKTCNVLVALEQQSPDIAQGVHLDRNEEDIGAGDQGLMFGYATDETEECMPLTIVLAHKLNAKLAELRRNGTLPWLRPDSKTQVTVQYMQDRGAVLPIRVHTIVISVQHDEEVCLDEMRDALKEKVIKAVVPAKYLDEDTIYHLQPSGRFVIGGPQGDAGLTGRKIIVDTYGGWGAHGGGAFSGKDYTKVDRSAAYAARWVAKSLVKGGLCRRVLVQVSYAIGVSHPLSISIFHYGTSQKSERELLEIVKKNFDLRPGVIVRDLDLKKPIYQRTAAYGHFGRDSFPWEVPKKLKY", "T3 sequence (Q9NZL9 21-334 partner limits assumed)": "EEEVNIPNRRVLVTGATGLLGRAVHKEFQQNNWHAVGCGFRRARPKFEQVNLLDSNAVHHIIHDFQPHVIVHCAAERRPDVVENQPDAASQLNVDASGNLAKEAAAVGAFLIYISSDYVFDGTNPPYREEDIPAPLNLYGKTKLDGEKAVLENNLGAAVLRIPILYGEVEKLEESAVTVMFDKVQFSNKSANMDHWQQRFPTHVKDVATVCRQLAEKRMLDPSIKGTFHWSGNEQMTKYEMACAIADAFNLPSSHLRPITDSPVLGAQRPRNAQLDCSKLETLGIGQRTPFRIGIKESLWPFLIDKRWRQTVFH", "assay": "X-ray crystal structure, […] Å", "settings": "crystal co-crystallized and soaked with AMPPNP and methionine; SAMe also bound; Mg"}, "MAT(α2)4(βV2)2 [2]": {"target": "T3, MAT(α2)4(βV2)2", "assay": "X-ray crystal structure, […] Å", "settings": "active site at MATα2 dimer interface; Mg; two of four sites occupied; SAMe also in 4ndn"}, "MAT(α2)4(βV2)2 [3]": {"target": "T3, MAT(α2)4(βV2)2", "assay": "X-ray crystal structure, […] Å", "settings": "crystal co-crystallized and soaked with ATP only; ADO and PO4 at active site; Mg"}}, "note": "pKd: −log10 of the molar value.", "data": [{"compound": "NC(=O)c1ccc[n+]([C@@H]2O[C@H](COP(=O)(O)OP(=O)(O)OC[C@H]3O[C@@H](n4cnc5c(N)ncnc54)[C@H](OP(=O)(O)O)[C@@H]3O)[C@@H](O)[C@H]2O)c1", "note": "[NADP]", "values": [{"measurement": "pKd", "setting": "MATβV2", "value": 5.05}, {"measurement": "pKd", "setting": "MATβV1", "value": 5.07}]}, {"compound": "O=P(O)(O)NP(=O)(O)OP(=O)(O)O", "note": "[PPNP]", "values": [{"measurement": "X-ray crystal structure, 2.35 Å", "setting": "MAT(α2)4(βV2)2 [1]", "value": "Crystal co-crystallized and soaked with AMPPNP and methionine shows SAMe and PPNP"}]}, {"compound": "C[S+](CC[C@H](N)C(=O)O)C[C@H]1O[C@@H](n2cnc3c(N)ncnc32)[C@H](O)[C@@H]1O", "note": "(some centres unmarked) [SAMe]", "values": [{"measurement": "X-ray crystal structure, 2.6 Å", "setting": "MAT(α2)4(βV2)2 [2]", "value": "the presence of SAMe, adenosine (ADO) or PPNP"}]}, {"compound": "Nc1ncnc2c1ncn2[C@@H]1O[C@H](CO)[C@@H](O)[C@H]1O", "note": "[adenosine]", "values": [{"measurement": "X-ray crystal structure, 3.3 Å", "setting": "MAT(α2)4(βV2)2 [3]", "value": "shows adenosine molecule (ADO) and PO4 at the active site"}]}]}
